US10697019B2, “Method of diagnosis and prognosis” (IMPERIAL COLLEGE INNOVATIONS LIMITED, priority 2011, dated 2020)
[ ]: non-standard residue; d: D form. The star is where a group is joined. Cbz = O=C(OCc1ccccc1)*

Tested on: panel of 29 cancer cell lines
Assay: [3H]thymidine incorporation assay of Z-DTP-induced killing, correlated with Gadd45β mRNA expression (qRT-PCR)
Type: cell-based
Conditions: 10 μM Z-DTP2 for 144 hrs, Pearson correlation p<0.01
Excerpt: The significance of the correlation co-efficient between the two parameters is p<0.01 (Pearson correlation as calculated by GraphPad software).
For example, primary cell from multiple myeloma patients can be analysed for levels of Gadd45β expression, and patients with high levels of this expression can be deemed as those who will receive the most benefit from treatment with Gadd45β inhibitors.
In order to determine the basis for the different sensitivity of tumour cell lines to Z-DTP-induced killing, we measured levels of Gadd45β expression in a panel of 29 tumour cell lines or different tissues of origin by using quantitative real-time polymerase chain reaction (qRT-PCT) and correlated these levels with the degree of susceptibility of these cell lines to the cytotoxic activity of Z-DTPs. […] Experimental Ct values were normalized to β-actin, and relative mRNA expression calculated versus a reference sample (i.e. mRNA from HEK-293T cells). The sensitivity of cancer cell lines to Z-DTP-induced killing was analysed as described above by performing [^3H]thymidine incorporation assays after treatment of the cells with 10 μM of Z-DTP2 for 144 hrs. […] The significance of the correlation coefficient between the 2 parameters' domain was calculated by Pearson correlation, which quantifies the association between two variables, using the GraphPad software.

## Z-DTP2: tetrapeptide Tyr-Glu-Arg-Phe, amino acids in the D configuration, NH2 group at the C terminal, benzyloxycarbonyl group at the N terminal; specific Gadd45β inhibitor (Cbz-[dY][dE][dR][dF]-NH2)
  cancer cell sensitivity to Z-DTP-induced killing versus levels of endogenous Gadd45β expression: correlates with a very high degree of statistical significance
